This note sets out measurements from patent US8198311B2, “Modulators of glucocorticoid receptor, AP-1, and/or NF-κB activity and use thereof” (Bristol-Myers Squibb Company, priority 2006, dated 2012).

For orientation: Ki means a dissociation constant, usually derived from enzyme kinetics or from competition with a known ligand. As a reminder, the EC50 is the concentration at which the effect is half-maximal.

Assay [1] concerns the target T1, human glucocorticoid receptor (Homo sapiens, UniProt P04150).
T1 construct: purified human recombinant full-length glucocorticoid receptor (2 nM); purchased Invitrogen Part # 2893
T1 sequence (P04150 1-777): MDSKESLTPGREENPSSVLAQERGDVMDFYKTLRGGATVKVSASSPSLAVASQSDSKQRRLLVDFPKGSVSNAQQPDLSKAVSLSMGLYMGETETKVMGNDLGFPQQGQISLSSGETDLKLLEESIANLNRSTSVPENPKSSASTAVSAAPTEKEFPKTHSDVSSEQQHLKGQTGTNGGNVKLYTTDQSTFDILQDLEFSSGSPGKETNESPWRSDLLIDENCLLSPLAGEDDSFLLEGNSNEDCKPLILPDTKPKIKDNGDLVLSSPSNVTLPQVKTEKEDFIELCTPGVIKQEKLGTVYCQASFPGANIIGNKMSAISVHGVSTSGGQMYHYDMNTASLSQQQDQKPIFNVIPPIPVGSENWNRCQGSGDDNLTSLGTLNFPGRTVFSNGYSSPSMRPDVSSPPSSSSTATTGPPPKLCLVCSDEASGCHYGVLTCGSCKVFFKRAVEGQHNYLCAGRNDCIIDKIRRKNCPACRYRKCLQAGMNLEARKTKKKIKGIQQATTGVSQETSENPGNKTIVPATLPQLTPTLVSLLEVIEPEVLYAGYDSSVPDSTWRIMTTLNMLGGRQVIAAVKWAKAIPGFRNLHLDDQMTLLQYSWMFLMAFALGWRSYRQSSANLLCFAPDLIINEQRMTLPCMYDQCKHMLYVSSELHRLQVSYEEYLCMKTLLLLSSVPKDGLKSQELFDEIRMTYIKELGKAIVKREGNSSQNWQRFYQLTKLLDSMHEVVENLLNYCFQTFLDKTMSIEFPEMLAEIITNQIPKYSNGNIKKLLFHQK
Description: Glucocorticoid Receptor Binding Assay (I), fluorescence polarization competitor kit (Fluormone GS Red). Particulars: purified human recombinant full-length GR. An outline of the steps: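 Fluorescence polarization competition: full-length recombinant human GR (2 nM) incubated with 1 nM Fluormone GS Red plus test compound (8.5E-05 to 5 μM) for 2 h at room temperature in the dark before FP read-out.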
For orientation: Fluorescence polarisation rises when a labelled molecule tumbles more slowly, as on binding a larger partner.

In assay [2] the test system is AP-1 induced transcriptional activity. Description: Cellular Transrepressional Assay (AP-1 luciferase reporter in A549 cells, PMA-activated). The following applies: Homo sapiens, A549, 7 h, pAP-1-Luc, 10 ng/ml PMA, read-out: AP-1 (EC50, nM) (Cellular Transrepression Assay). In kind it is cell-based. An outline of the steps:
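A549 cells stably carrying a 7×AP-1-luciferase reporter, stimulated with 10 ng/ml PMA with or without compound (0.1 nM-40 μM) for 7 h. Luciferase luminescence read 10 min after reagent addition; repression is percentage decrease of PMA-alone signal, EC50 by curve fitting.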
In general terms: In a reporter assay the amount or activity of a reporter protein is the signal.

The structures appear in SMILES notation.

On to `CCCC(CNS(=O)(=O)CC(F)(F)F)C(c1ccccc1)c1ccc2c(cnn2-c2ccc(F)cc2)c1` (centres unmarked) [Example 99, 2,2,2-Trifluoro-N-(2-((1-(4-fluorophenyl)-1H-indazol-5-yl)(phenyl)methyl)pentyl)ethanesulfonamide], for which the Ki in assay [1] is 6.1 nM. The EC50 in assay [2] is 40 nM.
The corresponding values for `O=S(=O)(CC(F)(F)F)NCC(c1ccccc1)C(c1ccccc1)c1ccc2c(cnn2-c2ccc(F)cc2)c1` (centres unmarked) [Example 100, 2,2,2-Trifluoro-N-(3-(1-(4-fluorophenyl)-1H-indazol-5-yl)-2,3-diphenylpropyl)ethanesulfonamide] are 18.3 nM and 5000 nM.
In the case of `CCC(c1ccc2c(cnn2-c2ccc(F)cc2)c1)C(C)(C)CNC(=O)NC(C)(C)C` (centres unmarked) [Example 101, 1-tert-butyl-3-(3-(1-(4-fluorophenyl)-1H-indazol-5-yl)-2,2-dimethylpentyl)urea], the Ki in assay [1] was determined as 2.1 nM. The half-maximal effective concentration (EC50) in assay [2] came out at 132 nM.
As for `CC(C)(C)NC(=O)NCC(C)(C)C(c1ccc2c(cnn2-c2ccc(F)cc2)c1)C1CC1` (centres unmarked) [Example 102, 1-tert-butyl-3-(3-cyclopropyl-3-(1-(4-fluorophenyl)-1H-indazol-5-yl)-2,2-dimethylpropyl)urea], the Ki in assay [1] was 8.4 nM. For the same molecule, the EC50 in assay [2] was 691 nM.
With `CC(C)C(c1ccc2c(cnn2-c2ccc(F)cc2)c1)C(C)(C)CNC(=O)NC(C)(C)C` (centres unmarked) [Example 103, 1-tert-butyl-3-(3-(1-(4-fluorophenyl)-1H-indazol-5-yl)-2,2,4-trimethylpentyl)urea], the inhibition constant Ki in assay [1] is 5.9 nM. Besides, the EC50 in assay [2] is 349 nM.
In the same order, the values of `CCCC(c1ccc2c(cnn2-c2ccc(F)cc2)c1)C(C)(C)CNC(=O)NC(C)(C)C` (centres unmarked) [Example 104, 1-tert-butyl-3-(3-(1-(4-fluorophenyl)-1H-indazol-5-yl)-2,2-dimethylhexyl)urea] are 2.1 nM and 23 nM.
In the case of `C=CCC(c1ccc2c(cnn2-c2ccc(F)cc2)c1)C(C)(C)CNC(=O)NC(C)(C)C` (centres unmarked) [Example 105, 1-tert-butyl-3-(3-(1-(4-fluorophenyl)-1H-indazol-5-yl)-2,2-dimethylhex-5-enyl)urea], the Ki in assay [1] stood at 1.7 nM. For the same molecule, in assay [2], the EC50 stood at 77 nM.
The corresponding values for `CC(C)(C)NC(=O)NCC(C)(C)C(c1ccc2c(cnn2-c2ccc(F)cc2)c1)C1CCCC1` (centres unmarked) [Example 106, 1-tert-butyl-3-(3-cyclopentyl-3-(1-(4-fluorophenyl)-1H-indazol-5-yl)-2,2-dimethylpropyl)urea] are 3.3 nM and 304 nM.
As for `CC(C)(C)NC(=O)NCC(C)(C)C(CCCO)c1ccc2c(cnn2-c2ccc(F)cc2)c1` (centres unmarked) [Example 107, 1-tert-Butyl-3-(3-(1-(4-fluorophenyl)-1H-indazol-5-yl)-6-hydroxy-2,2-dimethylhexyl)urea], in assay [1], the Ki was 3.1 nM. Moreover, the EC50 in assay [2] amounted to 2020 nM.
Turning to `CC(C)(C)NC(=O)NCC(C)(C)C(CC1CC1)c1ccc2c(cnn2-c2ccc(F)cc2)c1` (centres unmarked) [Example 108, 1-tert-Butyl-3-(4-cyclopropyl-3-(1-(4-fluorophenyl)-1H-indazol-5-yl)-2,2-dimethylbutyl)urea], the inhibition constant Ki in assay [1] was found to be 1.7 nM. Besides, in assay [2], the EC50 was found to be 8.1 nM.
Take `CC(C)(CNC(=O)Nc1nccs1)C(C)(C)c1ccc2c(cnn2-c2ccc(F)cc2)c1` [Example 115, 1-(3-(1-(4-Fluorophenyl)-1H-indazol-5-yl)-2,2,3-trimethylbutyl)-3-(thiazol-2-yl)urea]: the Ki in assay [1] is 16 nM. In assay [2], the EC50 is more than 10000 nM.
For the molecule `CC(C)(CNC(=O)Nc1ccccn1)C(C)(C)c1ccc2c(cnn2-c2ccc(F)cc2)c1` [Example 116, 1-(3-(1-(4-fluorophenyl)-1H-indazol-5-yl)-2,2,3-trimethylbutyl)-3-(pyridin-2-yl)urea], the Ki in assay [1] amounted to 177 nM. Moreover, in assay [2], the EC50 was more than 10000 nM.
The corresponding values for `CCNC(=O)NCC(C)(C)C(C)(C)c1ccc2c(cnn2-c2ccc(F)cc2)c1` [Example 117, 1-ethyl-3-(3-(1-(4-fluorophenyl)-1H-indazol-5-yl)-2,2,3-trimethylbutyl)urea] are 20 nM and more than 10000 nM.
